Reference: patent US20060210611A1, “Fat soluble vitamin feed supplements and processes for delivering same” (priority 2003, published 2006)
Read-outs that look alike come from different tables or passages of the source. One block for each compound: values may come before it.

Key:
[1] = per 1 mg; cited from earlier work
[2] = cited from earlier work
[3] = cited from earlier work; remark: listed apart in the source
[4] = AT accretion in RCDM neck muscle at 1,000 IU vitamin E/hd/day (McClure); assay type: in vivo, Bos indicus crosses; details: 1000 IU/hd/day (McClure), 25-125 days fed
Experimental: McClure (FIG. 1) tested the rate of accretion in Bos indicus crosses when fed 1,000 IU of Vitamin E/hd/day. Groups of cattle were slaughtered at 25-day intervals, and neck muscles obtained for tissue AT analysis. Because the controls were already receiving 200 IU E/day, initial AT concentrations were above 3.5. However, RCDM (rectus capitis dorsalis major) AT concentration rose in a logarithmic fashion, eventually reaching a plateau of 9.3 μg/gm. (McClure et al., Determination of Appropriate Vitamin E Supplementation Levels and Administration Times to Ensure Adequate Muscle Tissue Alpha-Tocopherol Concentrations in Cattle Destined for the Nolan Ryan Tender-Aged Beef (NRTAAB) Program, Animal Sciences Report (2002)).

[5] = Dietary vitamin E regimens and final longissimus muscle α-tocopherol (AT) concentration (Arnold); assay type: in vivo, cattle
Experimental: For example, Arnold compared several dietary vitamin E regimens and their resultant final tissue concentration of α-tocopherol (AT). Comparing the results to baseline control and assuming AT accretion in longissimus muscle is linear over time, approximate rates of AT accretion are calculated for various E regimens. Because AT rise is likely logarithmic (See e.g., Arnold et al., J. Anim. Sci. 71:105-118. (1993)), these calculated rates are conservative estimates, especially for feeding periods exceeding 150 days.

[6] = Calculated average AT accretion rates in longissimus muscle (Arnold and McClure combined); assay type: in vivo, cattle
From the text: Combining the results from Arnold and McClure, and bearing in mind that various muscles accrete AT at different rates (sirloin>inside round>RCDM>strip loin; Roeber et al., Effects of Three Levels of α-Tocopherol Acetate Supplementation to Feedlot Cattle on Performance of Beef Cuts (2001)), average accretion rates for AT in longissimus muscle can be calculated: […]

[7] = 360 IU/hd/day, 211-252 days fed
[8] = 1280 IU/hd/day, 211-252 days fed
[9] = 2080 IU/hd/day, 196-266 days fed
[10] = 3520 IU/hd/day, 196-266 days fed

Compound: CC(=O)Oc1c(C)c(C)c2c(c1C)CCC(C)(CCCC(C)CCCC(C)CCCC(C)C)O2 (racemic) [all-rac-α-tocopherol acetate]
specific activity [1]: 1.00 IU per milligram

Compound: Cc1c(C)c2c(c(C)c1O)CCC(C)(CCCC(C)CCCC(C)CCCC(C)C)O2 (racemic) [all-rac-α-tocopherol]
specific activity [1]: 1.10 IU per milligram

Compound: CC(=O)Oc1c(C)c(C)c2c(c1C)CC[C@@](C)(CCC[C@H](C)CCC[C@H](C)CCCC(C)C)O2 [RRR-α-tocopherol acetate]
specific activity [1]: 1.36 IU per milligram

Compound: Cc1c(C)c2c(c(C)c1O)CC[C@@](C)(CCC[C@H](C)CCC[C@H](C)CCCC(C)C)O2 [RRR-α-tocopherol]
specific activity [1]: 1.49 IU per milligram

Calculated Rise in AT per 50 days [4]: 2.6 μg/gm/50 days
Calculated Rise in AT per 50 days ([5]; 300 IU/hd/day, 231-309 days fed, vs control baseline, linear accretion assumed): 0.52 μg/gm/50 days
Calculated Rise in AT per 50 days [5, 7]: 0.64 μg/gm/50 days
Calculated Rise in AT per 50 days ([5]; 1140 IU/hd/day, 67 days fed): 3.58 μg/gm/50 days
Calculated Rise in AT per 50 days ([5]; 1200 IU/hd/day, 38 days fed): 2.76 μg/gm/50 days
Calculated Rise in AT per 50 days [5, 8]: 1.28 μg/gm/50 days
Calculated Rise in AT per 50 days [5, 9]: 1.38 μg/gm/50 days
Calculated Rise in AT per 50 days [5, 10]: 1.58 μg/gm/50 days
AT Accretion ([6]; Vitamin E dose 500 IU/hd/day): 0.75-1.0 μg AT/gm wet muscle/50 days
AT Accretion ([6]; Vitamin E dose 1000+ IU/hd/day): 1.5-3.6 μg AT/gm wet muscle/50 days
AT Accretion ([6]; Vitamin E dose less than 500 IU/hd/day): 0.5-0.6 μg AT/gm wet muscle/50 days
Compound: Vitamin E
Final Longissimus AT concentration ([2]; 300 IU/hd/day, 231-309 days fed): 3.8 μg/gm wet muscle
Final Longissimus AT concentration [2, 7]: 4.1 μg/gm wet muscle
Final Longissimus AT concentration ([2]; 1140 IU/hd/day, 67 days fed): 6.2 μg/gm wet muscle
Final Longissimus AT concentration ([2]; 1200 IU/hd/day, 38 days fed): 3.5 μg/gm wet muscle
Final Longissimus AT concentration [2, 8]: 6.8 μg/gm wet muscle
Final Longissimus AT concentration [2, 9]: 6.8 μg/gm wet muscle
Final Longissimus AT concentration [2, 10]: 7.6 μg/gm wet muscle
RCDM AT concentration plateau ([3]; 1,000 IU of Vitamin E/hd/day, slaughter at 25-day intervals): 9.3 μg/gm
Final AT concentration (in RCDM muscle) ([3]; 1000 IU/hd/day (McClure), 25-125 days fed): 9.3 μg/gm wet muscle
initial AT concentrations ([3]; controls already receiving 200 IU E/day): above 3.5
